# Reference: patent US6642217B2, “Triterpenes having human antifungal and antiyeast activity” (Naturtek, LLC, priority 2000, dated 2003)
# What was measured:
# [1] = tested on: Microsporum audouinni; assay: Direct addition method, solid compound in Sabouraud dextrose agar; type: cell-based, Microsporum audouinii; set-up: key to Fungal growth: +++: Maximum Fungal Growth; ++: Moderate Fungal Growth; +: Minimum Fungal Growth; +/−: Very little Fungal Growth; −: No Fungal Growth; settings: 4 mg/mL of agar; 12th day after inoculation
# Description: (§1) Direct addition method. Sabouraud dextrose agar was prepared according to the manufacturer's instructions and 5.0 ml was dispensed in each 100×25 mm tube. The tubes were autoclaved. To each tube containing 5.0 ml of liquid agar at 45° C., 20 mg of solid test compound was added, to give a final concentration of 4 mg/ml. The agar was solidified in slants. The fungal cultures were then innoculated. The slants were incubated at 25-28 ° C. for 10-12 days, and the growth of the fungus was recorded every second day. The results in Table 2 indicate growth at the 12th day of inoculation.
# [2] = tested on: Trichophyton mentagrophyte; assay: Agar dilution method, growth on Sabouraud dextrose agar slants; type: cell-based, Trichophyton mentagrophytes; set-up: key to Fungal growth: +++: Maximum Fungal Growth; ++: Moderate Fungal Growth; +: Minimum Fungal Growth; +/−: Very little Fungal Growth; −: No Fungal Growth; settings: 12th day after inoculation
# Description: (§2) Agar dilution method. Sabouraud Dextrose Agar (Difco Laboratories, Michigan) was prepared according to the manufacturer's instructions. Five ml was dispensed in a 100×25 mm tube and autoclaved. To each tube containing 5.0 ml of liquid agar at 45° C., 0.5, 0.25, 0.12, or 0.063 ml of a DMSO solution of the compound was added to give the final indicated concentrations in Table 2. The agar was then solidified in slants. Fungal cultures were inoculated. The slants were incubated at 25-28° C. for 10-12 days, and the growth of the fungus was recorded every second day.
# [3] = tested on: Microsporum canis; assay: as above; type: cell-based; set-up: key: +++: Maximum Fungal Growth; ++: Moderate Fungal Growth; +: Minimum Fungal Growth; +/−: Very little Fungal Growth; −: No Fungal Growth; settings: 12th day after inoculation
# Description: as §2
# [4] = tested on: Trichophyton rubrum; assay: as above; type: cell-based; set-up: key: +++: Maximum Fungal Growth; ++: Moderate Fungal Growth; +: Minimum Fungal Growth; +/−: Very little Fungal Growth; −: No Fungal Growth; settings: 12th day after inoculation
# Description: as §2
# [5] = tested on: Microsporum gypseum; assay: as above; type: cell-based; set-up: key: +++: Maximum Fungal Growth; ++: Moderate Fungal Growth; +: Minimum Fungal Growth; +/−: Very little Fungal Growth; −: No Fungal Growth; settings: 12th day after inoculation
# Description: as §2
# [6] = tested on: Pityrosporum ovale; assay: as above; type: cell-based; set-up: key: +++: Maximum Fungal Growth; ++: Moderate Fungal Growth; +: Minimum Fungal Growth; +/−: Very little Fungal Growth; −: No Fungal Growth; settings: 12th day after inoculation
# Description: as §2
# [7] = tested on: Epidermophyton floccosum; assay: as above; type: cell-based; set-up: key to Fungal growth: +++: Maximum Fungal Growth; ++: Moderate Fungal Growth; +: Minimum Fungal Growth; +/−: Very little Fungal Growth; −: No Fungal Growth; settings: 12th day after inoculation
# Description: as §2
# [8] = tested on: Pityrosporum ovale; assay: Direct addition into the Pityrosporum agar; type: cell-based; set-up: key to Pityrosporum ovale growth: +++: Maximum Growth; ++: Moderate Growth; +: Minimum Growth; +/−: Very Little Growth; −: No Growth; settings: 4 mg/ml in the agar; 18 hours after inoculation
# Description: as §1, with “The slants were incubated at 25-28 ° C. for 10-12 days, and the growth of the fungus was recorded every second day. The results in Table 2 indicate growth at the 12th day of inoculation.” left out
# [9] = tested on: Trichophyton tonsurans; assay: Summary of anti-fungal assays (direct addition, agar dilution, liquid culture); type: cell-based; settings: stated in words (Tables 1a/1b, text to Table 5)
# Description: (§3) This example summarizes the results of various other assays of the anti-fungal activity of betulin derivatives. Table 5 summarizes results using different assay methods—direct addition, agar dilution, and direct addition to liquid culture, as disclosed in the previous three Examples. In some cases, only one type of assay was done with a compound. In other cases, the compound was tested by multiple assays.
# [10] = tested on: Microsporum audouinii; assay: as above; type: cell-based; settings: stated in words (Tables 1a/1b, text to Table 5)
# Description: as §3
# [11] = tested on: Trichophyton tonsuran; assay: Agar dilution method, growth on Sabouraud dextrose agar slants; type: cell-based, Trichophyton tonsurans; set-up: key: +++: Maximum Fungal Growth; ++: Moderate Fungal Growth; +: Minimum Fungal Growth; +/−: Very little Fungal Growth; −: No Fungal Growth; settings: 12th day after inoculation
# Description: as §2
# [12] = tested on: Epidermophyton floccosum; assay: Direct addition method, solid compound in Sabouraud dextrose agar; type: cell-based; set-up: key: +++: Maximum Fungal Growth; ++: Moderate Fungal Growth; +: Minimum Fungal Growth; +/−: Very little Fungal Growth; −: No Fungal Growth; settings: 4 mg/mL of agar; 12th day after inoculation
# Description: as §1
# [13] = tested on: Microsporum canis; assay: as above; type: cell-based; set-up: key: +++: Maximum Fungal Growth; ++: Moderate Fungal Growth; +: Minimum Fungal Growth; +/−: Very little Fungal Growth; −: No Fungal Growth; settings: 4 mg/mL of agar; 12th day after inoculation
# Description: as §1
# [14] = tested on: Trichophyton rubrum; assay: as above; type: cell-based; set-up: key: +++: Maximum Fungal Growth; ++: Moderate Fungal Growth; +: Minimum Fungal Growth; +/−: Very little Fungal Growth; −: No Fungal Growth; settings: 4 mg/mL of agar; 12th day after inoculation
# Description: as §1
# [15] = tested on: Pityrosporum ovale; assay: as above; type: cell-based; set-up: key: +++: Maximum Fungal Growth; ++: Moderate Fungal Growth; +: Minimum Fungal Growth; +/−: Very little Fungal Growth; −: No Fungal Growth; settings: 4 mg/mL of agar; 12th day after inoculation
# Description: as §1
# [16] = tested on: Microsporum audouinni; assay: Agar dilution method, growth on Sabouraud dextrose agar slants; type: cell-based, Microsporum audouinii; set-up: key: +++: Maximum Fungal Growth; ++: Moderate Fungal Growth; +: Minimum Fungal Growth; +/−: Very little Fungal Growth; −: No Fungal Growth; settings: 12th day after inoculation
# Description: as §2
smiles,measurement,setting,value
CC1(C)CCC23CCC4(C)C(CCC5C6(C)CCC(OC(=O)CCCC(=O)O)C(C)(C)C6CCC54C)C2C1OC3 (stereo not shown) [Allobetulin-3-glutarate],Fungal growth,[1],+
same,Fungal growth,[2]; 12.5 μg/ml,++
same,Fungal growth,[2]; 25 μg/ml,+
same,Fungal growth,[2]; 50 μg/ml,+
same,Fungal growth,[2]; 100 μg/ml,−
same,Fungal growth,[3]; 12.5 μg/ml,+
same,Fungal growth,[3]; 25 μg/ml,+/−
same,Fungal growth,[3]; 50 μg/ml,−
same,Fungal growth,[3]; 100 μg/ml,−
same,Fungal growth,[4]; 12.5 μg/ml,++
same,Fungal growth,[4]; 25 μg/ml,++
same,Fungal growth,[4]; 50 μg/ml,+
same,Fungal growth,[4]; 100 μg/ml,−
same,Fungal growth,[5]; 12.5 μg/ml,+++
same,Fungal growth,[5]; 25 μg/ml,++
same,Fungal growth,[5]; 50 μg/ml,++
same,Fungal growth,[5]; 100 μg/ml,−
same,Fungal growth,[6]; 12.5 μg/ml,+++
same,Fungal growth,[6]; 25 μg/ml,+++
same,Fungal growth,[6]; 50 μg/ml,+|
same,Fungal growth,[6]; 100 μg/ml,−
same,Fungal growth,[7]; 12.5 μg/ml,++
same,Fungal growth,[7]; 25 μg/ml,+
same,Fungal growth,[7]; 50 μg/ml,+
same,Fungal growth,[7]; 100 μg/ml,−
same,Pityrosporum ovale growth,[8],+
same,Active against Trichophyton tonsurans,[9],Trichophyton tonsurans
same,Active against Microsporum audouinii,[10],Microsporum audouinii
same,Fungal growth,[11]; 12.5 μg/ml,+
same,Fungal growth,[11]; 25 μg/ml,+/−
same,Fungal growth,[11]; 50 μg/ml,−
same,Fungal growth,[11]; 100 μg/ml,−
same,Fungal growth,[12],−
same,Fungal growth,[13],+
same,Fungal growth,[14],+
same,Fungal growth,[15],−
same,Fungal growth,[16]; 12.5 μg/ml,+
same,Fungal growth,[16]; 25 μg/ml,+/−
same,Fungal growth,[16]; 50 μg/ml,−
same,Fungal growth,[16]; 100 μg/ml,−
CC1(C)CCC23CC[C@@]4(C)C(CCC5[C@@]6(C)CCC(OC(=O)CCC(=O)O)C(C)(C)C6CC[C@]54C)C2C1OC3 (stereo partly shown) [Allobetulin-3-succinate],Fungal growth,[1],+
same,Fungal growth,[2]; 62.5 μg/ml,++
same,Fungal growth,[2]; 125 μg/ml,+
same,Fungal growth,[2]; 250 μg/ml,+/−
same,Fungal growth,[2]; 500 μg/ml,−
same,Fungal growth,[3]; 62.5 μg/ml,++
same,Fungal growth,[3]; 125 μg/ml,++
same,Fungal growth,[3]; 250 μg/ml,−
same,Fungal growth,[3]; 500 μg/ml,−
same,Fungal growth,[4]; 62.5 μg/ml,++
same,Fungal growth,[4]; 125 μg/ml,++
same,Fungal growth,[4]; 250 μg/ml,−
same,Fungal growth,[4]; 500 μg/ml,−
same,Fungal growth,[5]; 62.5 μg/ml,+++
same,Fungal growth,[5]; 125 μg/ml,++
same,Fungal growth,[5]; 250 μg/ml,+
same,Fungal growth,[5]; 500 μg/ml,−
same,Fungal growth,[6]; 62.5 μg/ml,+++
same,Fungal growth,[6]; 125 μg/ml,+++
same,Fungal growth,[6]; 250 μg/ml,+++
same,Fungal growth,[6]; 500 μg/ml,+
same,Fungal growth,[7]; 62.5 μg/ml,++
same,Fungal growth,[7]; 125 μg/ml,++
same,Fungal growth,[7]; 250 μg/ml,+
same,Fungal growth,[7]; 500 μg/ml,−
same,Pityrosporum ovale growth,[8],+
same,Active against Microsporum audouinii,[10],Microsporum audouinii
same,Fungal growth,[11]; 62.5 μg/ml,++
same,Fungal growth,[11]; 125 μg/ml,++
same,Fungal growth,[11]; 250 μg/ml,+
same,Fungal growth,[11]; 500 μg/ml,−
same,Fungal growth,[12],−
same,Fungal growth,[13],+
same,Fungal growth,[14],+
same,Fungal growth,[15],−
same,Fungal growth,[16]; 62.5 μg/ml,++
same,Fungal growth,[16]; 125 μg/ml,++
same,Fungal growth,[16]; 250 μg/ml,−
same,Fungal growth,[16]; 500 μg/ml,−
